Test results published in US12077555B2, “STAT degraders and uses thereof” (Kymera Therapeutics, Inc., priority 2019, dated 2024).

Each compound was assayed against STAT3 (Homo sapiens, UniProt P40763) (assay: STAT3 HiBiT degradation assay in transfected A549 cells). Details: A549, 24 h; read-out: STAT3 HiBiT A549 degradation 24 h: Average external-Abs DC50.
Format: cell-based
Design: expressed in transfected cells; host or cells: A549
Experimental: Compound preparation and Cell seeding: The transfected A549 cells were harvested from dish into cell culture medium and cell numbers counted. Cells were diluted with culture medium to the desired density and 30 μL of cell suspension (about 2000 cells/well) were added into each well of a 384-well cell culture plate as designated and transferred into 37° C. 5% CO2 incubator for 24 h. Compounds were dissolved to 10 mM stock solution and 12 μL of the stock solution was transferred to a 384 LDV-plate. 3 fold, 10-point dilution was performed by transferring 4 μL compound into 8 μL DMSO using a TECAN (EVO200) liquid handler. 30 μL of diluted compound from compound source plate was transferred into the cell plate as designated by using Echo550 and transferred into 37° C. 5% CO2 incubator for 24 h.
Detection: Plates were removed from incubators and equilibrated at room temperature for 15 minutes. Nano-Glo Hibit Lytic Detection reagent (Promega Cat #N3040) was thawed and equilibrated to room temperature before the experiment. 30 μL of Nano-Glo Hibit Lytic Detection reagent was added into each well to be detected. The plates were held at room temperature for 10 min followed by reading on EnSpire.
Data analysis: The remaining activity was calculated following the formula: Remaining Activity (%)=100%×(Lumsample−LumNC)/(LumPC−LumNC). Calculate the IC50 by fitting the curve using Xlfit (v5.3.1.3), equation 201: fit=(A+((B−A)/(1+((x/C)^D)))); A: Bottom; B: Top; C: IC50; and D: Slope.
The letter codes for STAT3 DC50 include: A (<0.01 μM), B (0.01-0.1 μM), C (0.1-1.0 μM), and D (>1.0 μM).

Sequence of STAT3 (P40763 whole entry): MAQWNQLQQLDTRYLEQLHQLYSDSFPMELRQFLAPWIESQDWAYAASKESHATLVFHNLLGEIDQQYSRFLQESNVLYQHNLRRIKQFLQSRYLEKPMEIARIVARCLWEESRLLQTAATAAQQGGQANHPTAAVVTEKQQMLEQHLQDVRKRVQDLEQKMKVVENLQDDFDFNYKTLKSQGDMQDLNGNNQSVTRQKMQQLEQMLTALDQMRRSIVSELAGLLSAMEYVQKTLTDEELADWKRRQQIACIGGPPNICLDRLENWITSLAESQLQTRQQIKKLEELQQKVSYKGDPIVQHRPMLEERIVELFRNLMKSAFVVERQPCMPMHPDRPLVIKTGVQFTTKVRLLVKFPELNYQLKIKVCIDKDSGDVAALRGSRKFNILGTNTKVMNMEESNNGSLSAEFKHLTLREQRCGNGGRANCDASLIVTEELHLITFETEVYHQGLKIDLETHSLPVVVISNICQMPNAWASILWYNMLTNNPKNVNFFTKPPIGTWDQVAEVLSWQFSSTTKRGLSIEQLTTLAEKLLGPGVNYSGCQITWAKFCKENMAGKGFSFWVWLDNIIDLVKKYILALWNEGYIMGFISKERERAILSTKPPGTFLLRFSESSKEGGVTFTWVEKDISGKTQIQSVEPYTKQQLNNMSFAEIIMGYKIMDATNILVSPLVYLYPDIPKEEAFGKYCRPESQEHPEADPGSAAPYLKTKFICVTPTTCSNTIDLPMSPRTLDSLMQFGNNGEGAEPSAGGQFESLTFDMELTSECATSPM

First: Cc1ncsc1-c1ccc([C@H](C)NC(=O)[C@@H]2C[C@@H](O)CN2C(=O)[C@@H](NC(=O)CCCCc2ccc(CO[C@H](C)[C@H](CCC(N)=O)NC(=O)[C@@H]3Cc4cccc5c4N3C(=O)[C@@H](NC(=O)c3cc4cc(C(=O)O)ccc4[nH]3)CC5)cc2)C(C)(C)C)cc1 [Compound I-131, Ammonium 2-[[(2S,11S)-2-[[(3S,4R)-1-carbamoyl-4-[[4-(4-[[(2S)-1-[(2S,4R)-4-hydroxy-2-[[(1S)-1-[4-(4-methyl-1,3-thiazol-5 yl)phenyl]ethyl]carbamoyl]pyrrolidin-1-yl]-3,3-dimethyl-1-oxobutan-2-yl]carbamoyl]butyl)phenyl]methoxy]pentan-3-yl]carbamoyl]-12-oxo-1-azatricyclo[6.4.1.0^[4,13]]trideca-4(13),5,7-trien-11-yl]carbamoyl]-1H-indole-5-carboxylate]
Second: Cc1ncsc1-c1ccc([C@H](C)NC(=O)[C@@H]2C[C@@H](O)CN2C(=O)[C@@H](NC(=O)CCCCc2ccc(COC[C@H](CCC(N)=O)NC(=O)[C@@H]3Cc4cccc5c4N3C(=O)[C@@H](NC(=O)c3cc4cc(C(=O)P(=O)(O)O)ccc4[nH]3)CC5)cc2)C(C)(C)C)cc1 [Compound I-141, diammonium 2-[[(2S,11S)-2-[[(2S)-4-carbamoyl-1-[[4-(4-[[(2S)-1-[(2S,4R)-4-hydroxy-2-[[(1S)-1-[4-(4-methyl-1,3-thiazol-5-yl)phenyl]ethyl]carbamoyl]pyrrolidin-l-yl]-3,3-dimethyl-1-oxobutan-2-yl]carbamoyl]butyl)phenyl]methoxy]butan-2-yl]carbamoyl]-12-oxo-1-azatricyclo[6.4.1.0^[4,13]]trideca-4(13),5,7-trien-11-yl]carbamoyl]-1H-indole-5-carbonylphosphonate]
The DC50 of the first is higher: greater than 1000 nM for the first, 10 to 100 nM for the second.

`Cn1c(=O)n(C2CCC(=O)NC2=O)c2ccc(NCCCCCC(=O)N3CC[C@H]4CC[C@@H](C(=O)N[C@@H](CCC(N)=O)C(=O)NC(c5ccccc5)c5ccccc5)N4C(=O)[C@@H](NC(=O)c4cc5cc(C(=O)P(=O)(O)O)ccc5[nH]4)C3)cc21` (stereo partly drawn) [Compound I-132, 2-[[(5S,8S,10aR)-8-[[(1S)-3-carbamoyl-1-(diphenylmethylcarbamoyl)propyl]carbamoyl]-3-(6-[[1-(2,6-dioxopiperidin-3-yl)-3-methyl-2-oxo-1,3-benzodiazol-5-yl]amino]hexanoyl)-6-oxo-octahydropyrrolo[1,2-a][1,5]diazocin-5-yl]carbamoyl]-1H-indole-5-carbonylphosphonic acid] and `Cn1c(=O)n(C2CCC(=O)NC2=O)c2ccc(N3CC(CCCC(=O)N4CC[C@H]5CC[C@@H](C(=O)N[C@@H](CCC(N)=O)C(=O)NC(c6ccccc6)c6ccccc6)N5C(=O)[C@@H](NC(=O)c5cc6cc(C(=O)P(=O)(O)O)ccc6[nH]5)C4)C3)cc21` (stereo partly drawn) [Compound I-135, 2-[[(5S,8S,10aR)-8-[[(1S)-3-carbamoyl-1-(diphenylmethylcarbamoyl)propyl]carbamoyl]-3-(4-[1-[1-(2,6-dioxopiperidin-3-yl)-3-methyl-2-oxo-1,3-benzodiazol-5-yl]azetidin-3-yl]butanoyl)-6-oxo-octahydropyrrolo[1,2-a][1,5]diazocin-5-yl]carbamoyl]-1H-indole-5-carbonylphosphonic acid] fall in the same range of DC50: 100 to 1000 nM for the first, 100 to 1000 nM for the second.

First: Cc1ncsc1-c1ccc(CNC(=O)[C@@H]2C[C@@H](O)CN2C(=O)[C@@H](NC(=O)CCCc2cccc3cc(CO[C@H](C)[C@H](CCC(N)=O)NC(=O)[C@@H]4Cc5cccc6c5N4C(=O)[C@@H](NC(=O)c4cc5cc(C(=O)P(=O)(O)O)ccc5[nH]4)CC6)ccc23)C(C)(C)C)cc1 [Compound I-133, diammonium 2-[[(2S,11S)-2-[[(3S,4R)-1-carbamoyl-4-[[5-(3-[[(2S)-1-[(2S,4R)-4-hydroxy-2-([[4-(4-methyl-1,3-thiazol-5-yl)phenyl]methyl]carbamoyl)pyrrolidin-1-yl]-3,3-dimethyl-1-oxobutan-2-yl]carbamoyl]propyl)naphthalen-2-yl]methoxy]pentan-3-yl]carbamoyl]-12-oxo-1-azatricyclo[6.4.1.0^[4,13]]trideca-4(13),5,7-trien-11-yl]carbamoyl]-1H-indole-5-carbonylphosphonate]
Second: Cc1ncsc1-c1ccc(CNC(=O)[C@@H]2C[C@@H](O)CN2C(=O)[C@@H](NC(=O)CCc2cccc3cc(CO[C@H](C)[C@H](CCC(N)=O)NC(=O)[C@@H]4Cc5cccc6c5N4C(=O)[C@@H](NC(=O)c4cc5cc(C(=O)P(=O)(O)O)ccc5[nH]4)CC6)ccc23)C(C)(C)C)cc1 [Compound I-136, diammonium 2-[[(2S,11S)-2-[[(3S,4R)-1-carbamoyl-4-[[5-(2-[[(2S)-1-[(2S,4R)-4-hydroxy-2-([[4-(4-methyl-1,3-thiazol-5-yl)phenyl]methyl]carbamoyl)pyrrolidin-1-yl]-3,3-dimethyl-1-oxobutan-2-yl]carbamoyl]ethyl)naphthalen-2-yl]methoxy]pentan-3-yl]carbamoyl]-12-oxo-1-azatricyclo[6.4.1.0^[4,13]]trideca-4(13),5,7-trien-11-yl]carbamoyl]-1H-indole-5-carbonylphosphonate]
The DC50 of the first is lower: 100 to 1000 nM for the first, greater than 1000 nM for the second.

`Cc1ncsc1-c1ccc(CNC(=O)[C@@H]2C[C@@H](O)CN2C(=O)[C@@H](NC(=O)CCCc2ccc(CNC(=O)[C@H](CCC(N)=O)NC(=O)[C@@H]3Cc4cccc5c4N3C(=O)[C@@H](NC(=O)c3cc4cc(C(=O)P(=O)(O)O)ccc4[nH]3)CC5)cc2)C(C)(C)C)cc1` [Compound I-138] and `Cc1ncsc1-c1ccc(CNC(=O)[C@@H]2C[C@@H](O)CN2C(=O)C(NC(=O)CCCCc2ccc(CNC(=O)[C@H](CCC(N)=O)NC(=O)[C@@H]3Cc4cccc5c4N3C(=O)[C@@H](NC(=O)c3cc4cc(C(=O)P(=O)(O)O)ccc4[nH]3)CC5)cc2)C(C)(C)C)cc1` (stereo partly shown) [Compound I-139] cannot be ordered by DC50: greater than 1000 nM for the first, greater than 1000 nM for the second.

`Cc1ncsc1-c1ccc(CNC(=O)[C@@H]2C[C@@H](O)CN2C(=O)[C@@H](NC(=O)CCCCCc2ccc(CNC(=O)[C@H](CCC(N)=O)NC(=O)[C@@H]3Cc4cccc5c4N3C(=O)[C@@H](NC(=O)c3cc4cc(C(=O)P(=O)(O)O)ccc4[nH]3)CC5)cc2)C(C)(C)C)cc1` [Compound I-140] and `C/C(=C\C(=O)N[C@H]1CCc2cccc3c2N(C1=O)[C@H](C(=O)N[C@@H](CCC(N)=O)[C@@H](C)OCc1ccc(CCCCC(=O)N[C@H](C(=O)N2C[C@H](O)C[C@H]2C(=O)N[C@@H](C)c2ccc(-c4scnc4C)cc2)C(C)(C)C)cc1)C3)c1cccc(C(F)(F)P(=O)(O)O)c1` [Compound I-142] cannot be ordered by DC50: greater than 1000 nM for the first, greater than 1000 nM for the second.

Work on `C/C(=C\C(=O)N[C@H]1CN(C(=O)CCCCCCc2ccc3c(c2)n(C)c(=O)n3C2CCC(=O)NC2=O)CC[C@H]2CC[C@@H](C(=O)N[C@@H](CCC(N)=O)C(=O)NC(c3ccccc3)c3ccccc3)N2C1=O)c1cccc(C(F)(F)P(=O)(O)O)c1` (stereo partly drawn) [Compound I-143, [3-[(1E)-1-[[(8S,10aR)-8-[[(1S)-3-carbamoyl-1-(diphenylmethylcarbamoyl)propyl]carbamoyl]-3-[7-[1-(2,6-dioxopiperidin-3-yl)-3-methyl-2-oxo-1,3-benzodiazol-5-yl]heptanoyl]-6-oxo-octahydropyrrolo[1,2-a][1,5]diazocin-5-yl]carbamoyl]prop-1-en-2-yl]phenyl]difluoromethylphosphonic acid] yielded a DC50 greater than 1000 nM.

Same assay, conditions: read-out: STAT3 HiBiT A549 degradation 24 h: Average external-Abs DC50; A549, 24 h

Compared with `Cn1c(=O)n(C2CCC(=O)NC2=O)c2cc(CCCCCCC(=O)N3CC[C@H]4CC[C@@H](C(=O)N[C@@H](CCC(N)=O)C(=O)NC(c5ccccc5)c5ccccc5)N4C(=O)[C@@H](NC(=O)c4cc5cc(C(=O)P(=O)(O)O)ccc5[nH]4)C3)ccc21` (stereo partly drawn) [Compound I-134, 2-[[(5S,8S,10aR)-8-[[(1S)-3-carbamoyl-1-(diphenylmethylcarbamoyl)propyl]carbamoyl]-3-[7-[3-(2,6-dioxopiperidin-3-yl)-1-methyl-2-oxo-1,3-benzodiazol-5-yl]heptanoyl]-6-oxo-octahydropyrrolo[1,2-a][1,5]diazocin-5-yl]carbamoyl]-1H-indole-5-carbonylphosphonic acid], `Cc1ncsc1-c1ccc(CNC(=O)[C@@H]2C[C@@H](O)CN2C(=O)[C@@H](NC(=O)CCCCc2ccc(CO[C@H](C)[C@H](CCC(N)=O)NC(=O)[C@@H]3[C@@H]4C[C@@H]4CN3C(=O)[C@H](CC(C)C)NC(=O)c3cc4cc(C(=O)P(=O)(O)O)ccc4[nH]3)cc2)C(C)(C)C)cc1` [Compound I-137, diammonium 2-[[(2S)-1-[(1R,2S,5S)-2-[[(3S,4R)-1-carbamoyl-4-[[4-(4-[[(2S)-1-[(2S,4R)-4-hydroxy-2-([[4-(4-methyl-1,3-thiazol-5-yl)phenyl]methyl]carbamoyl)pyrrolidin-1-yl]-3,3-dimethyl-1-oxobutan-2-yl]carbamoyl]butyl)phenyl]methoxy]pentan-3-yl]carbamoyl]-3-azabicyclo[3.1.0]hexan-3-yl]-4-methyl-1-oxopentan-2-yl]carbamoyl]-1H-indole-5-carbonylphosphonate] is lower in DC50: greater than 1000 nM for the first, 10 to 100 nM for the second.
